Experimental data reported in patent publication US8802161B2, “Herbal composition and method of use for the treatment of cancer” (Florida Agricultural and Mechanical University, priority 2003, dated 2014).
Where two headings read alike, the source gives them in different places.

How the values were obtained:
LDH Type V = biological target: T1, LDH Type V (Oryctolagus cuniculus, UniProt P13491); assay: LDH enzyme kinetic activity (NADH oxidation); assay type: biochemical, rabbit
T1 construct: were determined in pure isolated enzyme preparations; from tissue; host or cells: rabbit muscle
Source text: FIG. 2—The toxicity of selected plant extracts and 2′,3,4′5,7-pentahydroxyflavone were previously determined on N-2A neuroblastoma cells prior to examination of their effects on kinetic activity of pyruvate kinase (PK) and LDH (data not shown). Briefly, the effects of experimental compounds on PK and LDH Type V, resembling that inherent to human cancer (Koukourakis et al., Br J Cancer. 2003; 89:877-85; Augoff and Grabowski. Pol Merkuriusz Lek 2004; 17:644-7; Nagai et al., Int J Cancer. 198815; 10-6; Evans et al., Biol. Chem. 1985; 260:306-14) were determined in pure isolated enzyme preparations. Briefly, PK Type III (from rabbit muscle [2.7.1.40]) was prepared in distilled water+HEPES (pH 7.5), at a concentration of 0.5 enzyme U/ml. Pyruvic acid was converted to lactate in the presence of LDH (from rabbit muscle, type V-S [EC 1.1.1.27]), at a concentration of 10 U/ml in the presence of adenosine, 2′,5′-diphospahte (ADP) (1.5 mM), β-NADH (1 mM)±magnesium sulfate (MgSO4) (5 mM). Experimental compounds were incubated with the enzyme solution for 10 minutes and addition of 1 mM phosphoenolpyruvate (PEP) prepared in distilled water started the reaction. Negative controls were established for all compounds tested. Enzyme activities were determined by spectrophotometric analysis using a UV spectrometer at 340 nm, by monitoring the oxidation of NADH. Experimental compounds that blocked the reaction through the PK/LDH cascade, were re-analyzed for LDH inhibition. LDH activity was achieved using an enzyme reaction mixture, minus PK or PEP, and starting the reaction with pyruvate (1 mM) prepared in buffered distilled water. Validation studies for LDH kinetic activity were established by monitoring the oxidation of NADH over time and concentration with dual detection quantifying lactic acid using a lactate oxidase based colorimetric enzymatic assay (Procedure No 735, Sigma Diagnostics, St. Louis, Mo.). FIG. 2A describes the effect of tumoricidal plant extracts and 2′,3,4′5,7-pentahydroxyflavone on inhibition of PK/LDH activity. The data represent reaction rate of NADH oxidation in the presence of enzyme/cofactor reagents+PEP (1 mM)±varying concentration of experimental compounds at 30 Min. […] Significance of difference from the controls were determined by a one-way ANOVA, followed by a Tukey mean comparison post hoc test, [*] group P<0.001,*P<0.001. FIG. 2B describes the effect of tumoricidal plant-extracts and 2′,3,4′5,7-pentahydroxyflavone on inhibition of LDH activity. The data represent reaction rate of NADH oxidation in the presence of enzyme/cofactor reagents+pyruvate (1 mM)±single level of experimental compound over time. […] Significance of difference from the control was determined by a two-way ANOVA, [*] P<0.001.

cancer cells = assay: lethality to cancer cells; assay type: cell-based
complex IV = assay: mitochondrial respiration / O2 utilization through complex IV in cancer cells; assay type: cell-based
mitochondrial complex II = assay: kinetic activity of mitochondrial complex II in cancer cells; assay type: biochemical
[1] = test system: neuroblastoma and MCF-7 cell line; assay: toxicity of 3-BP versus 2,3-DMBQ: growth inhibition of MCF-7 cells and cell viability of N2A cells; assay type: cell-based; settings: 24 hour incubation (FIGS. 3A,B)
Experimental: Briefly, cells were grown in Eagles MEM medium with […] and 10% calf serum and plated at 5′ 104 cells in 24 well plates. Appropriate positive (tamoxifen) and negative (no drug) controls were maintained simultaneously. After 24 hour incubation, cells were trypsined and collected by centrifugation, re-suspended in fresh media and cells were counted using trypan blue dye on a hemocytometer. […] FIG. 3B represents the evaluation of 3-BP versus 2,3-DMBQ on cell viability in N2A neuroblastoma cell line. Briefly, the experimental media consisted of DMEM (without phenol red), supplemented with 1.8% FBS (v/v), penicillin (100 U/ml)/streptomycin (0.1 mg/ml), 4 mM L-glutamine and 2 μM sodium pyruvate. Cells were plated at approximately 0.5×10^6 cells/ml in 96 well plates. A stock solution of each experimental compound was prepared in HBSS containing 5 mM HEPES, adjusted to a pH of 7.4. After 24 hours incubation at 37° C. and 5% CO2/atmosphere almar blue indicator dye was used to assess cell viability. Quantitative analysis of dye conversion was measured on a microplate fluorometer—Model 7620-version 5.02, Cambridge Technologies Inc. with settings fixed at [550/580], [excitation/emission], wavelengths. […]

[2] = test system: mitochondrial complex's I and IV; assay: Vmax and Km of mitochondrial complexes I and IV; assay type: biochemical
N-2A neuroblastoma cells = assay: in vitro screening of >700 nutraceuticals for tumoricidal properties (loss of cell viability, 24 H); assay type: cell-based; settings: 24 H incubation at 37° C.
[3] = test system: MD-MB-231 human mammary carcinoma; assay: efficacy against MD-MB-231 human mammary carcinoma xenograft; assay type: in vivo, Nu/Nu nude mice; settings: in comparison to a vehicle control; formulation i.p./s.c., taxol i.v.

O=c1c(O)c(-c2ccc(O)cc2O)oc2cc(O)cc(O)c12 [2′,3,4′5,7-pentahydroxyflavone] was tested, and the “LDH inhibition (LDH enzyme kinetic profiles)” value (shortened to “LDH inhibition”) (LDH Type V) was “inhibitor”.
COC1=C(OC)C(=O)C(C/C=C(\C)CC/C=C(\C)CC/C=C(\C)CC/C=C(\C)CC/C=C(\C)CC/C=C(\C)CC/C=C(\C)CC/C=C(\C)CC/C=C(\C)CCC=C(C)C)=C(C)C1=O [CoQ10, ubiquinone (50)] was tested, and the “lethality to cancer cells” value (cancer cells) was “not as lethal as expected”, the “rate of mitochondrial respiration or O2 utilization through complex IV” value (“rate” for short) (complex IV) was “did not control” and the “rate” value (complex IV; listed as ubiquinone (50)) was “no positive effect”. For the same molecule, the “Vmax / kinetic activity of mitochondrial complex II” value (mitochondrial complex II) was “increase” and the “Vmax / kinetic activity of mitochondrial complex II” value (mitochondrial complex II; listed as ubiquinone (50)) was “augmenting”.
For COC1=C(OC)C(=O)C(C)=CC1=O [DMBQ], the “lethality to cancer cells” value (cancer cells) was “lethal” and the “toxicity relative to bromopyruvate” value [1] was greater than 50 ×.
Cc1cc2nc3c(=O)[nH]c(=O)nc-3n(C[C@H](O)[C@H](O)[C@H](O)COP(=O)(O)OP(=O)(O)OC[C@H]3O[C@@H](n4cnc5c(N)ncnc54)[C@H](O)[C@@H]3O)c2cc1C [FAD, flavin adenine dinucleotide] was tested, and the “Vmax and Km of mitochondrial complex's I and IV” value (“Vmax and Km” for short) [2] was “augmenting the Vmax and reduction of Km”.
With Cc1cc2nc3c(=O)[nH]c(=O)nc-3n(C[C@H](O)[C@H](O)[C@H](O)COP(=O)(O)O)c2cc1C [FMN, flavin mononucleotide] the “Vmax and Km” value [2] was “augmenting the Vmax and reduction of Km”.
In the case of C[C@H]1[C@H](C)CC[C@]2(C)CC[C@]3(C)C(=CC[C@@H]4[C@@]5(C)CC[C@@H](O)[C@](C)(C(=O)O)[C@@H]5CC[C@]43C)[C@H]12 [boswellic acid], the “tumoricidal potency (loss of cell viability)” value (N-2A neuroblastoma cells) is reported as “most potent tumoricidal”.
For O=C(O)CC(O)(CC(=O)O)C(=O)O [citric acid], the “LDH inhibition” value (LDH Type V) was “LDH inhibitors”.
With COc1ccc(-c2cc(=O)c3c(O)cc(O[C@@H]4O[C@H](CO[C@@H]5O[C@@H](C)[C@H](O)[C@@H](O)[C@H]5O)[C@@H](O)[C@H](O)[C@H]4O)cc3o2)cc1O [diosmin] the “tumoricidal potency (loss of cell viability)” value (N-2A neuroblastoma cells) was “most potent tumoricidal”.
With O=C(O[C@@H]1Cc2c(O)cc(O)cc2O[C@@H]1c1cc(O)c(O)c(O)c1)c1cc(O)c(O)c(O)c1 [epigallocatechin gallate] the “LDH inhibition” value (LDH Type V) was “LDH inhibitors”.
With CC(C)=CCC[C@]1(C)C=Cc2c(O)c3c(c(CC=C(C)C)c2O1)O[C@]12C(=C[C@@H]4C[C@H]1C(C)(C)O[C@@]2(C/C=C(/C)C(=O)O)C4=O)C3=O [gambogic acid] the “tumoricidal potency (loss of cell viability)” value (N-2A neuroblastoma cells) was “most potent tumoricidal”.
For O=c1c(O)c(-c2ccc(O)c(O)c2)oc2cc(O)cc(O)c12 [quercetin], the “LDH inhibition” value (LDH Type V) was “LDH inhibitors”.
With CC(=O)O[C@H]1C(=O)[C@@]2(C)[C@H]([C@H](OC(=O)c3ccccc3)[C@]3(O)C[C@H](OC(=O)[C@H](O)[C@@H](NC(=O)c4ccccc4)c4ccccc4)C(C)=C1C3(C)C)[C@]1(OC(C)=O)CO[C@@H]1C[C@@H]2O [taxol®] the “tumor growth and growth latency” value [3] was “reduced tumor growth and growth latency”.
In the case of Cc1cc2nc3c(=O)[nH]c(=O)nc-3n(C[C@H](O)[C@H](O)[C@H](O)CO)c2cc1C [vitamin B2, 7,8-dimethyl-10-ribityl-isoalloxazine], the “rate” value (complex IV) is reported as “drastically potentiates” and the “Vmax and Km” value [2] is reported as “augmenting the Vmax and reduction of Km”.
